Like-named read-outs stand apart in the source and are kept apart here. Some results are limits rather than exact numbers.

These results are taken from patent US8604044B2, “Quinazoline based EGFR inhibitors containing a zinc binding moiety” (Curis, Inc., priority 2006, dated 2013).

One data set has as its system HDAC. In words: HDAC fluorimetric assay (HDAC enzymatic activity, HeLa nuclear extract). It is filed as biochemical. As to conditions: HeLa nuclear extract; read-out: HDAC IC50 grading. As for the experimental part: HDAC inhibitors were screened using an HDAC fluorimetric assay kit (AK-500, Biomol, Plymouth Meeting, Pa.).
Each assay was setup as follows: Defrosted all kit components and kept on ice until use. […] Prepared dilutions of Trichostatin A (TSA, positive control) and tested compounds in assay buffer (5× of final concentration). Diluted Fluor de Lys™ Substrate in assay buffer to 100 uM (50 fold=2× final). Diluted Fluor de Lys™ developer concentrate 20-fold (e.g. 50 μl plus 950 μl Assay Buffer) in cold assay buffer. Second, diluted the 0.2 mM Trichostatin A 100-fold in the 1× Developer (e.g. 10 μl in 1 ml; final Trichostatin A concentration in the 1× Developer=2 μM; final concentration after addition to HDAC/Substrate reaction=1 μM). Added Assay buffer, diluted trichostatin A or test inhibitor to appropriate wells of the microtiter plate. Added diluted HeLa extract or other HDAC sample to all wells except for negative controls.

For a further data set, the target named is T1, human EGFR (Homo sapiens, UniProt P00533).
T1 construct: human EGFR (His672-Ala1210); purchased Cell Signaling Technologies; host or cells: baculovirus expression system
In words: HTScan EGF Receptor Kinase Assay. The class given is biochemical. On the procedure: The ability of compounds to inhibit receptor kinase (EGFR) activity was assayed using HTScan™ EGF Receptor Kinase Assay Kits (Cell Signaling Technologies, Danvers, Mass.). […] The protein was purified by one-step affinity chromatography using glutathione-agarose.
Immediately transfer enzyme from −80° C. to ice. Allowed enzyme to thaw on ice. […] Returned immediately to ice. […] Incubated reaction plate at room temperature for 30 minutes. […] Added 100 μl/well primary antibody. Incubated at room temperature for 60 minutes. […] Added 100 μl/well diluted antibody. Incubated at room temperature for 30 minutes. […] Incubated at room temperature for 5 minutes.

The target of a further data set is T2, HER2 (Homo sapiens, UniProt P04626).
T2 construct: human HER2 amino acids 679-1255; host or cells: baculovirus in Sf9 insect cells
Kind of data set: Radioisotope assay for HER2. The class given is biochemical. As to conditions: read-out: HER2/ErB2 IC50 grading. On the procedure:
Protocol for Radioisotope Assay for HER2
10 nM HER2 and 0.1 mg/ml polyEY were placed in the reaction buffer and 2 mM MnCl2, 1 μM ATP and 1% DMSO final were added. The reaction mixture was incubated for 2 hours at room temperature.
MW=91.6 kDa. […] Enzyme is in 25 mM Tris-HCl, pH 8.0, 100 mM NaCl, 0.05% Tween-20, 50% glycerol, 10 mM reduced glutathione, and 3 mM DTT.

Data set [1] has as its system HDAC in MDA-MB-468 breast cancer cell line. Kind of data set: Ac-H4 / Ac-H3 accumulation in MDA-MB-468 breast cancer cell line (FIG. 2). It is filed as cell-based. As to conditions: MDA-MB-468, Ac-H4 and Ac-H3 accumulation.
Data set [2] is described as follows: Pharmacokinetic study of compound 12 formulation in mice. It is filed as in vivo. As to conditions: hydrochloride salt in 30% CAPTISOL
As for the experimental part:
Drug Preparation and Administration. […] Compound was administered via an intravenous (iv) infusion.
Plasma samples were prepared by protein precipitation. An internal standard was added into plasma samples. […] The supernatant was then injected onto LC/MS/MS.
Tissues were homogenized in 0.8 ml water. An internal standard was added into the tissue homogenates.

Assay in data set [3]: as above
The class given is in vivo. As to conditions: IP Dose 20 mg/kg, hydrochloride salt in 30% CAPTISOL

The subject of data set [4] is various cancer cell lines. Kind of data set: Cell proliferation assay, various cancer cell lines (general statements). The class given is cell-based. As to conditions: Table D. On the procedure:
Cancer cell lines were plated at 5,000 to 10,000 per well in 96-well flatted bottomed plates with various concentration of compounds. The cells were incubated with compounds for 72 hours in the presence of 0.5% of fetal bovine serum. Growth inhibition was accessed by adenosine triphosphate (ATP) content assay using Perkin Elmer ATPlite kit. ATPlite is an ATP monitoring system based on firefly luciferase. Briefly, 25 μl of mammalian cell lysis solution was added to 50 μl of phenol red-free culture medium per well to lyse the cells and stabilize the ATP. 25 μl of substrate solution was then added to the well and subsequently the luminescence was measured.

The conditions of data set [5]: male, CD-1, mouse, in vivo, ip, 7 days.
Data set [6] concerns HCT-116 (colon) and SKBr3 (breast) cancer cells. In words: Induction of apoptosis, Caspase 3&7 activity (FIG. 4). It is filed as cell-based. As to conditions: 24 hours.
The conditions of data set [7]: both, Sprague Dawley, rat, in vivo, iv, 8 days.
The nature of data set [8]: Captisol formulation of compound 12: solubility, pH, dilution, stability.
The conditions of data set [9]: male, CD-1, mouse, in vivo, iv, 9 days.
Data set [10] concerns HPAC pancreatic cancer cells. Kind of data set: HPAC pancreatic cancer xenograft. It is filed as in vivo, mice. As to conditions: 120 mg/kg in 30% CAPTISOL (iv/ip) daily vs 50 mg/kg erlotinib (po) or vehicle, FIG. 12A. On the procedure: (§1) 1-10×10^6 human cancer cells were implanted subcutaneously to the athymic (nu/nu) mice. When the tumors reached about 100 mm^3 in volume, the mice were treated with the compound by tail vein infusion. Routinely 5 groups (8-12 mice per group) are needed for a typical efficacy study, including one negative control, one positive control, and three testing groups for 3 dose levels of the same compound. Usually a 7-7-5 (on-off-on) regimen was used for one typical study. The tumor size was measured with an electronic caliper and body weight measured with a scale twice weekly. The tumors were removed from euthanized mice at the end of the study. One half of each tumor was frozen in dry ice and stored at −80° C. for PK or Western blot analysis. The other half was fixed with formalin. The fixed tissues were processed, embedded in paraffin and sectioned for immunohistochemistry staining.

A further data set relates to Caki-1. In words: Cell proliferation assay (Table D). The class given is cell-based. As to conditions: Homo sapiens, Renal carcinoma, read-out: IC50 grading Caki-1.
A short description of data set [11]: Pharmacokinetic study of compound 12 formulation in rats. The class given is in vivo. As to conditions: 20 and 60 mg/kg iv, hydrochloride salt in 30% CAPTISOL, over thirty hours, FIG. 14.
For data set [12], the system named is EGFR in MDA-MB-468 breast cancer cell line. Kind of data set: EGFR phosphorylation in MDA-MB-468 breast cancer cell line (FIG. 2). It is filed as cell-based. As to conditions: MDA-MB-468, FIG. 2.
The subject of the next data set is A549 NSCLC Xenograft. In words: A549 NSCLC xenograft model. It is filed as in vivo, mice. As to conditions: FIG. 11B. On the procedure:
as §1

T1 sequence (P00533 672-1210): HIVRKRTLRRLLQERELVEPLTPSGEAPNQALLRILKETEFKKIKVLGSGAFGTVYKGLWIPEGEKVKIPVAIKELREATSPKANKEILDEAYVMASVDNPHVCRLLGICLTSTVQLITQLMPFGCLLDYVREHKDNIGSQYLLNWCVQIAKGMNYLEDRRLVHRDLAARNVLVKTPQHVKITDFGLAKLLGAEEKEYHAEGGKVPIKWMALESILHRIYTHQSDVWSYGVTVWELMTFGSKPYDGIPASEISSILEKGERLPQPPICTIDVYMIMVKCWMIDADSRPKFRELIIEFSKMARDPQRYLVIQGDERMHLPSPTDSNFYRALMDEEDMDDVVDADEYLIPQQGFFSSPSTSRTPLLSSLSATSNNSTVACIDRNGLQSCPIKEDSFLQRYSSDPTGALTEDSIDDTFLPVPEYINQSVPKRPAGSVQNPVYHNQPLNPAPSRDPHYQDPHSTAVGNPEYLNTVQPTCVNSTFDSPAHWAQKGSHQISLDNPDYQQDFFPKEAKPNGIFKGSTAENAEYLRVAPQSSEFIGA
T2 sequence (P04626 679-1255): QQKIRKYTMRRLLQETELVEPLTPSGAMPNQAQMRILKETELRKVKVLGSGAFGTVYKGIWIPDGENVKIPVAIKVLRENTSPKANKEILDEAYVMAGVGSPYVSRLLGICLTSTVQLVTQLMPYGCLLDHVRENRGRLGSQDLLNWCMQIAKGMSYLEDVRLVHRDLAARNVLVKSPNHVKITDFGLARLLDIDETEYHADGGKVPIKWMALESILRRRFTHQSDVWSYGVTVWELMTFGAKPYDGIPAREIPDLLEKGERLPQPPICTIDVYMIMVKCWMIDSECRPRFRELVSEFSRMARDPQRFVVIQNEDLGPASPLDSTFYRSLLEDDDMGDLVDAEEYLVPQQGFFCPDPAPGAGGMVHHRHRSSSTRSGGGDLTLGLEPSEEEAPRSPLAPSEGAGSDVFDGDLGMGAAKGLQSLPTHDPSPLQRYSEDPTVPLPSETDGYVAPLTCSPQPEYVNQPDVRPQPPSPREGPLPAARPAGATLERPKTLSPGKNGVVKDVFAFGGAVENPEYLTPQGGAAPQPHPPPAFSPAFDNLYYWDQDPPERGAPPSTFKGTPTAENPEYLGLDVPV

`O=C(CCCCCNCc1ccc(-c2ccc3ncnc(Nc4ccc(OCc5cccc(F)c5)c(Cl)c4)c3c2)o1)NO` [Compound 177, 6-((5-(4-(3-chloro-4-(3-fluorobenzyloxy)phenylamino)quinazolin-6-yl)furan-2-yl)methylamino)-N-hydroxyhexanamide] registered a melting point of 121 °C. In addition, the IC50 in the data set with HDAC fell in the range of 100 to 1000 nM. The IC50 at human EGFR (read-out: EGFR IC50 grading) was < 100 nM. Further, the IC50 at HER2 is < 100 nM.

Take `C#Cc1cccc(Nc2ncnc3cc(OC)c(OCCCCCCC(=O)NO)cc23)c1` [Compound 12, 7-(4-(3-ethynylphenylamino)-7-methoxyquinazolin-6-yloxy)-N-hydroxyheptanamide]: at human EGFR (FIG. 1), the “activity in EFGR enzyme assay compared with erlotinib” value is “more active”. For the same molecule, in data set [1], the “histone H3/H4 acetylation accumulation compared with SAHA” value is on record as “improvement”. Moreover, the “dose proportionality of concentration” value in data set [2] (20 and 60 mg/kg, iv and ip) is on record as “dose proportional when administered intravenously but not intraperitoneally”. Further, the “T ½” value in data set [2] (IP Dose 20 mg/kg, Lung) was 2.2 h; in [2] (IV Dose 20 mg/kg, Colon), 1.7 h; in data set [2] (IV Dose 20 mg/kg, Lung), 3.9 h; in data set [2] (IV Dose 20 mg/kg, Plasma), 0.2 h; in [3] (Plasma), 0.26 h. The AUC was determined as 5529 ng·h/mL in data set [2] (IV Dose 20 mg/kg, Colon); 1571 ng·h/mL in data set [2] (IV Dose 20 mg/kg, Lung); 715 ng·h/mL in [2] (IV Dose 20 mg/kg, Plasma); 4433 ng·h/mL in [3] (Lung); 3751 ng·h/mL in data set [3] (Plasma). In addition, the Cmax in data set [2] (IV Dose 20 mg/kg, Colon) was determined as 8.5 µM; in data set [2] (IV Dose 20 mg/kg, Lung) it was 15.2 µM; in data set [2] (IV Dose 20 mg/kg, Plasma), 27.7 µM; in data set [3] (Lung), 7.8 µM; in data set [3] (Plasma), 8.5 µM. Moreover, the “half-life in tissue compared with plasma” value in [2] is given as “greater than that in plasma”. Further, in data set [4], the “activity in various cancer cell lines compared with Erlotinib and SAHA” value is “more active than Erlotinib and SAHA”. Further, the “dose not resulting in a significant change in body weight” value in data set [5] is listed as “up to 100 mg/kg”; in data set [7], “up to 200 mg/kg”; in data set [9] it was “up to 200 mg/kg”. Moreover, the “cell apoptosis measured by increased Caspase 3&7 activity, times more” value in data set [6] is given as 4-11 times. In addition, in data set [8] (25 mg/ml in 30% Captisol with tartaric acid), the stability of solution result was “stable at room temperature”. Besides, the “chemically stable and in solution without precipitation after dilution” value in data set [8] (formulations from A (i), diluted with D5W 10-, 20-, and 50-fold) is > 48 h. The “remained in solution without precipitation after dilution” value in data set [8] (formulations from A (ii) citric acid, A (iii) hydrochloric acid, A (iiii) sodium salt, diluted with D5W 10-fold) was > 12 h. In [8] (lyophilisate from A (i) (tartaric acid, 25 mg/ml), −20° C., room temperature, and 40° C.), the “chemical stability of lyophilisate” value is “at least 2 weeks”. Also, the “storage of lyophilisate without decomposition” value in data set [8] (lyophilisate from A (i), 4° C.) is reported as “greater than 2 weeks”. In addition, in [8] (lyophilisate from A (iii) (hydrochloric acid), −20° C.), the stability of lyophilisate entry is “at least two weeks”. The “attenuation of tumor growth” value in [10] is “greater attenuation of tumor growth than either erlotinib (po) or vehicle”. The IC50 in the data set with Caki-1 was ≤ 50 nM. Further, the “plasma concentration versus dose” value in data set [11] was “proportional to the dose”. Moreover, in data set [12], the “inhibition of EGFR phosphorylation compared with Erlotinib” value is recorded as “improvement”.

As for `COc1cc2ncnc(NCc3ccc(F)c(Cl)c3)c2cc1OCCCCCCC(=O)NO` [Compound 88, 7-(4-(3-chloro-4-fluorobenzylamino)-7-methoxyquinazolin-6-yloxy)-N-hydroxyheptanamide], the melting point is 143.1 °C (dec.). Also, the IC50 in the data set on HDAC is < 100 nM. For the same molecule, the IC50 on HER2 fell in the range of 1000 to 10000 nM.

As to `C#Cc1cccc(Nc2ncnc3cc(OCCOC)c(OCCOC)cc23)c1` [Erlotinib], the “effect on tumor size as compared to control” value in the data set on A549 NSCLC Xenograft is on record as “did not significantly affect tumor size”.

`O=C(CCCCOc1ccc2ncnc(Nc3ccc(F)c(Cl)c3)c2c1)NO` [Compound 16, 5-(4-(3-chloro-4-fluorophenylamino)quinazolin-6-yloxy)-N-hydroxypentanamide] had a melting point of 85.9 °C. Further, the IC50 in the data set with HDAC lay within 100 to 1000 nM.

As to `COc1cc2ncnc(N[C@H](C)c3ccc(F)cc3)c2cc1OCCCCCCC(=O)NO` [Compound 81, (R)-7-(4-(1-(4-fluorophenyl)ethylamino)-7-methoxyquinazolin-6-yloxy)-N-hydroxyheptanamide], the melting point lay within 118.2 to 144.3 °C. Moreover, the IC50 in the data set with HDAC lay within 100 to 1000 nM.

Molecule `C#Cc1cccc(Nc2ncnc3ccc(OCC(=O)NO)cc23)c1` [Compound 19, 2-(4-(3-ethynylphenylamino)quinazolin-6-yloxy)-N-hydroxyacetamide] registered a melting point of 189 to 191 °C. In addition, in the data set with HDAC, the IC50 was > 10000 nM.

The molecule `O=C(CCCOc1ccc2ncnc(Nc3ccc(F)c(Cl)c3)c2c1)NO` [Compound 15, 4-(4-(3-chloro-4-fluorophenylamino)quinazolin-6-yloxy)-N-Hydroxybutanamide] had a melting point of 128 to 132 °C. Also, the IC50 in the data set with HDAC was < 100 nM.
